Legend:
[1] = Examination of stereotypy in rats (method of Costall and Naylor); format: in vivo; parameters: Stereotypy, average score: scale not given here
Description: 3. Examination of stereotypy in rats
For the measurement of stereotypy the method of B. Costall and R. I. Naylor [Eur. J. Pharmacol. 18, 95 (1972)] was used. The score values in Table 4 are average score values obtained at the time of reading.

[2] = system: haloperidol-induced decrease in SMA; assay: Measurement of the haloperidol-antagonistic effect in mice (spontaneous motor activity, SMA); format: in vivo, male CFLP mice; conditions: haloperidol alone, 0.5 mg/kg i.p., relative to controls
Experimental: 2. Measurement of the haloperidol-antagonistic effect in mice
Male CFLP mice weighing 20 to 22 g were treated intraperitoneally with a dose of 0.5 mg/kg of 4-[4-(4-chlorophenyl)-4-hydroxy-1-piperidinyl]-1-(4-fluorophenyl)-1-butanone (haloperidol) and the spontaneous motor activity (SMA) was measured, in relation to the data obtained in the controls, by a capacitance-sensitive motimeter. Another group of the test animals was treated also with a dose of 30 mg/kg of the compound of Example 1, 15 minutes after the administration of haloperidol.

In the case of `CC(C)C[C@H]1C(=O)N2CCC[C@H]2[C@]2(O)O[C@](NC(=O)[C@@H]3C=C4c5cccc6[nH]c(Br)c(c56)C[C@H]4N(C)C3)(C(C)C)C(=O)N12` [Bromocriptine, reference compound], the “Stereotypy, average score” value ([1]; 5 mg/kg i.p., 30 min) is reported as 0.2, the “Stereotypy, average score” value ([1]; 5 mg/kg i.p., 60 min) is reported as 0.6 and the “Stereotypy, average score” value ([1]; 5 mg/kg i.p., 120 min) is reported as 0.8. The “Stereotypy, average score” value ([1]; 5 mg/kg i.p., 180 min) was 1.1, the “Stereotypy, average score” value ([1]; 5 mg/kg i.p., 240 min) was 0.4 and the “Stereotypy, average score” value ([1]; 10 mg/kg i.p., 30 min) was 0.5. For the same compound, the “Stereotypy, average score” value ([1]; 10 mg/kg i.p., 60 min) was 1.0, the “Stereotypy, average score” value ([1]; 10 mg/kg i.p., 120 min) was 1.8 and the “Stereotypy, average score” value ([1]; 10 mg/kg i.p., 180 min) was 1.9. The “Stereotypy, average score” value ([1]; 10 mg/kg i.p., 240 min) was 1.5, the “Stereotypy, average score” value ([1]; 20 mg/kg i.p., 30 min) was 0.6 and the “Stereotypy, average score” value ([1]; 20 mg/kg i.p., 60 min) was 1.2. The “Stereotypy, average score” value ([1]; 20 mg/kg i.p., 120 min) was 2.2, the “Stereotypy, average score” value ([1]; 20 mg/kg i.p., 180 min) was 2.4 and the “Stereotypy, average score” value ([1]; 20 mg/kg i.p., 240 min) was 1.8. For the same compound, the “Stereotypy (in words)” value ([1]; rats) was “causes stereotypy”.

With `O=C(CCCN1CCC(O)(c2ccc(Cl)cc2)CC1)c1ccc(F)cc1` [Haloperidol, 4-[4-(4-chlorophenyl)-4-hydroxy-1-piperidinyl]-1-(4-fluorophenyl)-1-butanone, reference compound] the “Decrease in SMA” value [2] was 62.6%.
